Source: patent US11759518B2, “Medicine for treating cancer by administering a toll-like receptor agonist and LAG-3 IgG fusion protein” (NEC CORPORATION, priority 2016, dated 2023)

Legend:
P815 tumor cells = assay: Suppression of tumor growth by immunoadjuvant combination, P815 model; format: in vivo, mouse; details: DBA/2 mice with P815 tumor, PIA CTL i.v. Day 7
Text: The following substances were used as adjuvants.
Poly I:C (TLR3 agonist) (Invivogen, SanDiego, USA)
RIBOXXOL (TLR3 agonist) (Riboxx, Radebeul, Germany)
MPL (TLR4 agonist) (Invivogen, SanDiego, USA)
Imiquimod (TLR7/8 agonist) (Invivogen, SanDiego, USA)
CpG (TLR9 agonist) (Invivogen, SanDiego, USA)
LAG-3Ig (Adipogen, SanDiego, USA)
P815 tumor cells were subcutaneously inoculated to DBA/2 mice in an amount of 5×10^5 cells per mouse to prepare cancer model mice. The day of inoculation was specified as Day 0. On Day 7, PIA CTL (2.5×10^5 cells per mouse) were intravenously injected. Day 8 and Day 15, an admixture of PIA peptide (50 μg per mouse) and an adjuvant in PBS was subcutaneously injected. Mice were divided into 9 groups each consisting of 4 or 5 mice and the following adjuvants were used respectively.
Group 1: PIA peptide alone (control)
(§1) Group 2: Poly I:C (50 μg/mouse)
Group 3: Poly I:C (50 μg/mouse)+LAG-3Ig (1 μg/mouse)
Group 4: No PIA peptide, Poly I:C (50 μg/mouse)+LAG-3Ig (1 μg/mouse) alone
Group 5: RIBOXXOL (100 μg/mouse) Group 6: RIBOXXOL (100 μg/mouse)+LAG-3Ig (1 μg/mouse)
Group 7: MPL (10 μg/mouse)+LAG-3Ig (1 μg/mouse) Group 8: Imiquimod (50 μg/mouse)+LAG-3Ig (1 μg/mouse)
Group 9: CpG (10 μg/mouse)+LAG-3Ig (1 μg/mouse)

B16-F10 melanoma cells = assay: Tumor growth inhibitory effect of immuno-adjuvant combination in B16-F10 melanoma inoculation model mice; format: in vivo, mouse; details: C57BL/6 mice with B16-F10 melanoma
Procedure: To C57BL/6 mice, B16-F10 melanoma cells (1×10^5 cells per mouse) were subcutaneously inoculated to prepare cancer model mice. The day of inoculation was specified as Day 0. On Day 5 and Day 12, twice in total, an admixture of gp100 peptide (50 μg per mouse) and an adjuvant in PBS was subcutaneously injected. The following adjuvants were used in respective mice groups.
Group 1: IFA (50 μL/mouse)
as §1
Group 3: LAG-3Ig (1 μg/mouse)
Group 4: LAG-3Ig (1 μg/mouse)+Poly I:C (50 μg/mouse)

[1] = system: P815 cells (DBA/2mouse-derived mouse mastocytoma); assay: Comparison of adjuvants in a cancer vaccine with PIA peptide, tumor size and survival; format: in vivo; details: DBA/2 mice with P815 tumor, 5 mice per group; PIA CTL i.v. Day 8; adjuvant admixed with PIA peptide 50 μg per mouse s.c. Day 9 and Day 16
Text: In accordance with the protocol shown in FIG. 1, the effects of adjuvants in cancer vaccines using a cancer-antigen derived peptide were compared.
As cancer model mice, DBA/2 mice, to which P815 cells (DBA/2mouse-derived mouse mastocytoma) were grafted, were put in use.
As a cancer-antigen derived peptide, a peptide (hereinafter referred to as “PIA peptide”) consisting of a partial sequence of PIA protein was used, which is a tumor antigen of P815 tumor and known to be restrictively presented by an MHC H-2Ld. The amino acid sequence of PIA peptide are represented by LPYLGWLVF (SEQ. ID No: 40).
As PIA CTL, a T cell expressing a T cell receptor and recognizing PIA peptide was used. […] Based on the positive ratio, the number of PIA-CTL cells was determined and administered.
As the adjuvants, the following substances were used.
P815 tumor cells were subcutaneously inoculated to DBA/2 mice in an amount of 5×10^5 cells per mouse. The day of inoculation was specified as Day 0. On Day 8, PIA CTL (2.5×10^5 cells per mouse) were intravenously injected. On Day 9 and Day 16, an admixture of PIA peptide (50 μg per mouse) and an adjuvant in PBS was subcutaneously injected. Mice were divided into 9 groups each consisting of 5 mice and the following adjuvants were used, respectively.
Group 2: IFA (50 μL/mouse)
Group 3: PT (1×10^8/mouse)
Group 4: Poly I:C (50 μg/mouse) […]

Substance | mice survived (P815 tumor cells; read against Day 40 of the preceding sentence, adjuvant admixed with PIA peptide (unless stated) s.c. Day 8 and Day 15) | effect of extending survival time (B16-F10 melanoma cells; Groups 2 and 3 compared to Group 1 (IFA), Group 4 compared to Groups 1, 2 and 3) | day on which five mice all died (B16-F10 melanoma cells; adjuvant admixed with gp100 peptide 50 μg s.c. Day 5 and Day 12) [days] | number of mice survived until Day 70 without increasing tumor size [1] | mice died up to Day 40 (P815 tumor cells; s.c. injection Day 8 and Day 15)
Polyinosinic:polycytidylic acid [Poly I:C] | Four out of 5 | a significant effect of extending survival time was not observed | 35 | 1 | 
LPYLGWLVF [PIA peptide alone] |  |  |  |  | 5 out of 5
